Oligonucleotides are given in HELM: sugar(base)linkage, 5' to 3'; d 2'-deoxyribose, r ribose, m 2'-O-methylribose, p phosphate. ss, as = sense and antisense strand
Molecular target: UBE2D3
Experiment: reporter assay of Huesken 2005
Settings: siRNA
Also: test concentration or dose not given here.

Question: For “RNA1{r(C)p.r(U)p.r(A)p.r(U)p.r(G)p.r(U)p.r(G)p.r(A)p.r(U)p.r(C)p.r(C)p.r(A)p.r(A)p.r(A)p.r(C)p.r(C)p.r(C)p.r(A)p.r(G)p.d(T)p.d(T)}|RNA2{r(C)p.r(U)p.r(G)p.r(G)p.r(G)p.r(U)p.r(U)p.r(U)p.r(G)p.r(G)p.r(A)p.r(U)p.r(C)p.r(A)p.r(C)p.r(A)p.r(U)p.r(A)p.r(G)p.d(C)p.d(A)}$$$RNA1{StrandType:ss}|RNA2{StrandType:as}$”, which normalised inhibition (eCFP-eYFP dual reporter) is on record?
Answer: 95.8%

Question: “RNA1{r(C)p.r(U)p.r(G)p.r(C)p.r(U)p.r(U)p.r(U)p.r(A)p.r(A)p.r(C)p.r(A)p.r(A)p.r(U)p.r(U)p.r(U)p.r(C)p.r(U)p.r(A)p.r(A)p.d(T)p.d(T)}|RNA2{r(U)p.r(U)p.r(A)p.r(G)p.r(A)p.r(A)p.r(A)p.r(U)p.r(U)p.r(G)p.r(U)p.r(U)p.r(A)p.r(A)p.r(A)p.r(G)p.r(C)p.r(A)p.r(G)p.d(G)p.d(C)}$$$RNA1{StrandType:ss}|RNA2{StrandType:as}$” was tested. Which normalised inhibition (eCFP-eYFP dual reporter) did it give?
Answer: 89.7%

Question: How did the normalised inhibition (eCFP-eYFP dual reporter) turn out when “RNA1{r(C)p.r(U)p.r(U)p.r(U)p.r(U)p.r(A)p.r(U)p.r(C)p.r(C)p.r(A)p.r(U)p.r(U)p.r(U)p.r(G)p.r(U)p.r(U)p.r(C)p.r(A)p.r(C)p.d(T)p.d(T)}|RNA2{r(G)p.r(U)p.r(G)p.r(A)p.r(A)p.r(C)p.r(A)p.r(A)p.r(A)p.r(U)p.r(G)p.r(G)p.r(A)p.r(U)p.r(A)p.r(A)p.r(A)p.r(A)p.r(G)p.d(A)p.d(A)}$$$RNA1{StrandType:ss}|RNA2{StrandType:as}$” was run?
Answer: 27%

Question: “RNA1{r(G)p.r(A)p.r(C)p.r(A)p.r(A)p.r(U)p.r(U)p.r(C)p.r(A)p.r(U)p.r(U)p.r(U)p.r(U)p.r(C)p.r(C)p.r(U)p.r(A)p.r(C)p.r(A)p.d(T)p.d(T)}|RNA2{r(U)p.r(G)p.r(U)p.r(A)p.r(G)p.r(G)p.r(A)p.r(A)p.r(A)p.r(A)p.r(U)p.r(G)p.r(A)p.r(A)p.r(U)p.r(U)p.r(G)p.r(U)p.r(C)p.d(A)p.d(A)}$$$RNA1{StrandType:ss}|RNA2{StrandType:as}$” was tested. Which normalised inhibition (eCFP-eYFP dual reporter) did it give?
Answer: 92.3%

Question: With “RNA1{r(G)p.r(A)p.r(C)p.r(U)p.r(A)p.r(C)p.r(C)p.r(C)p.r(C)p.r(U)p.r(U)p.r(C)p.r(A)p.r(A)p.r(A)p.r(C)p.r(C)p.r(A)p.r(C)p.d(T)p.d(T)}|RNA2{r(G)p.r(U)p.r(G)p.r(G)p.r(U)p.r(U)p.r(U)p.r(G)p.r(A)p.r(A)p.r(G)p.r(G)p.r(G)p.r(G)p.r(U)p.r(A)p.r(G)p.r(U)p.r(C)p.d(T)p.d(G)}$$$RNA1{StrandType:ss}|RNA2{StrandType:as}$” as the substance, how does the normalised inhibition (eCFP-eYFP dual reporter) read?
Answer: 87.6%

Question: For “RNA1{r(G)p.r(A)p.r(U)p.r(C)p.r(C)p.r(A)p.r(A)p.r(A)p.r(C)p.r(C)p.r(C)p.r(A)p.r(G)p.r(A)p.r(U)p.r(G)p.r(A)p.r(C)p.r(C)p.d(T)p.d(T)}|RNA2{r(G)p.r(G)p.r(U)p.r(C)p.r(A)p.r(U)p.r(C)p.r(U)p.r(G)p.r(G)p.r(G)p.r(U)p.r(U)p.r(U)p.r(G)p.r(G)p.r(A)p.r(U)p.r(C)p.d(A)p.d(C)}$$$RNA1{StrandType:ss}|RNA2{StrandType:as}$”, which normalised inhibition (eCFP-eYFP dual reporter) is on record?
Answer: 56.5%

Question: “RNA1{r(G)p.r(A)p.r(U)p.r(G)p.r(A)p.r(U)p.r(A)p.r(U)p.r(G)p.r(U)p.r(U)p.r(U)p.r(C)p.r(A)p.r(U)p.r(U)p.r(G)p.r(G)p.r(C)p.d(T)p.d(T)}|RNA2{r(G)p.r(C)p.r(C)p.r(A)p.r(A)p.r(U)p.r(G)p.r(A)p.r(A)p.r(A)p.r(C)p.r(A)p.r(U)p.r(A)p.r(U)p.r(C)p.r(A)p.r(U)p.r(C)p.d(C)p.d(C)}$$$RNA1{StrandType:ss}|RNA2{StrandType:as}$” was tested. Which normalised inhibition (eCFP-eYFP dual reporter) did it give?
Answer: 66.1%

Question: Which normalised inhibition (eCFP-eYFP dual reporter) does the source give for “RNA1{r(G)p.r(A)p.r(U)p.r(U)p.r(G)p.r(C)p.r(A)p.r(C)p.r(G)p.r(G)p.r(A)p.r(U)p.r(C)p.r(U)p.r(A)p.r(U)p.r(A)p.r(A)p.r(A)p.d(T)p.d(T)}|RNA2{r(U)p.r(U)p.r(U)p.r(A)p.r(U)p.r(A)p.r(G)p.r(A)p.r(U)p.r(C)p.r(C)p.r(G)p.r(U)p.r(G)p.r(C)p.r(A)p.r(A)p.r(U)p.r(C)p.d(T)p.d(C)}$$$RNA1{StrandType:ss}|RNA2{StrandType:as}$” here?
Answer: 92.4%

Question: How did the normalised inhibition (eCFP-eYFP dual reporter) turn out when “RNA1{r(G)p.r(C)p.r(A)p.r(A)p.r(G)p.r(C)p.r(C)p.r(A)p.r(C)p.r(A)p.r(A)p.r(U)p.r(U)p.r(A)p.r(U)p.r(G)p.r(G)p.r(G)p.r(A)p.d(T)p.d(T)}|RNA2{r(U)p.r(C)p.r(C)p.r(C)p.r(A)p.r(U)p.r(A)p.r(A)p.r(U)p.r(U)p.r(G)p.r(U)p.r(G)p.r(G)p.r(C)p.r(U)p.r(U)p.r(G)p.r(C)p.d(C)p.d(A)}$$$RNA1{StrandType:ss}|RNA2{StrandType:as}$” was run?
Answer: 75.8%

Question: For “RNA1{r(G)p.r(C)p.r(A)p.r(C)p.r(A)p.r(A)p.r(U)p.r(G)p.r(U)p.r(U)p.r(C)p.r(U)p.r(G)p.r(C)p.r(A)p.r(G)p.r(G)p.r(U)p.r(C)p.d(T)p.d(T)}|RNA2{r(G)p.r(A)p.r(C)p.r(C)p.r(U)p.r(G)p.r(C)p.r(A)p.r(G)p.r(A)p.r(A)p.r(C)p.r(A)p.r(U)p.r(U)p.r(G)p.r(U)p.r(G)p.r(C)p.d(T)p.d(G)}$$$RNA1{StrandType:ss}|RNA2{StrandType:as}$”, which normalised inhibition (eCFP-eYFP dual reporter) is on record?
Answer: 100%

Question: “RNA1{r(G)p.r(G)p.r(C)p.r(A)p.r(A)p.r(G)p.r(C)p.r(C)p.r(A)p.r(C)p.r(A)p.r(A)p.r(U)p.r(U)p.r(A)p.r(U)p.r(G)p.r(G)p.r(G)p.d(T)p.d(T)}|RNA2{r(C)p.r(C)p.r(C)p.r(A)p.r(U)p.r(A)p.r(A)p.r(U)p.r(U)p.r(G)p.r(U)p.r(G)p.r(G)p.r(C)p.r(U)p.r(U)p.r(G)p.r(C)p.r(C)p.d(A)p.d(A)}$$$RNA1{StrandType:ss}|RNA2{StrandType:as}$” was tested. Which normalised inhibition (eCFP-eYFP dual reporter) did it give?
Answer: 60.2%

Question: With “RNA1{r(G)p.r(G)p.r(G)p.r(A)p.r(U)p.r(G)p.r(A)p.r(U)p.r(A)p.r(U)p.r(G)p.r(U)p.r(U)p.r(U)p.r(C)p.r(A)p.r(U)p.r(U)p.r(G)p.d(T)p.d(T)}|RNA2{r(C)p.r(A)p.r(A)p.r(U)p.r(G)p.r(A)p.r(A)p.r(A)p.r(C)p.r(A)p.r(U)p.r(A)p.r(U)p.r(C)p.r(A)p.r(U)p.r(C)p.r(C)p.r(C)p.d(C)p.d(A)}$$$RNA1{StrandType:ss}|RNA2{StrandType:as}$” as the substance, how does the normalised inhibition (eCFP-eYFP dual reporter) read?
Answer: 95%

Question: For “RNA1{r(G)p.r(G)p.r(U)p.r(C)p.r(C)p.r(A)p.r(G)p.r(U)p.r(U)p.r(G)p.r(G)p.r(G)p.r(G)p.r(A)p.r(U)p.r(G)p.r(A)p.r(U)p.r(A)p.d(T)p.d(T)}|RNA2{r(U)p.r(A)p.r(U)p.r(C)p.r(A)p.r(U)p.r(C)p.r(C)p.r(C)p.r(C)p.r(A)p.r(A)p.r(C)p.r(U)p.r(G)p.r(G)p.r(A)p.r(C)p.r(C)p.d(T)p.d(G)}$$$RNA1{StrandType:ss}|RNA2{StrandType:as}$”, which normalised inhibition (eCFP-eYFP dual reporter) is on record?
Answer: 93.7%

Question: “RNA1{r(G)p.r(G)p.r(U)p.r(C)p.r(G)p.r(C)p.r(C)p.r(U)p.r(G)p.r(C)p.r(U)p.r(U)p.r(U)p.r(A)p.r(A)p.r(C)p.r(A)p.r(A)p.r(U)p.d(T)p.d(T)}|RNA2{r(A)p.r(U)p.r(U)p.r(G)p.r(U)p.r(U)p.r(A)p.r(A)p.r(A)p.r(G)p.r(C)p.r(A)p.r(G)p.r(G)p.r(C)p.r(G)p.r(A)p.r(C)p.r(C)p.d(A)p.d(C)}$$$RNA1{StrandType:ss}|RNA2{StrandType:as}$” was tested. Which normalised inhibition (eCFP-eYFP dual reporter) did it give?
Answer: 84.5%

— the OligoGym collection
